Assay results from patent publication US12258367B2, “Glucoside derivative that acts as SGLT1 inhibitor and application thereof” (MEDSHINE DISCOVERY INC., priority 2019, dated 2025).
Marks after values point to notes of the source that are not given here.

What was measured:
Human-SGLT1 = target: T1, Human-SGLT1 (Homo sapiens, UniProt P13866); test: SGLT1 glucose transport assay ([14C]-methyl α-D-glucopyranoside uptake); assay type: cell-based; conditions: cells stably expressing Human-SGLT1, 37° C. for 2 hours
T1 sequence (P13866 1-664): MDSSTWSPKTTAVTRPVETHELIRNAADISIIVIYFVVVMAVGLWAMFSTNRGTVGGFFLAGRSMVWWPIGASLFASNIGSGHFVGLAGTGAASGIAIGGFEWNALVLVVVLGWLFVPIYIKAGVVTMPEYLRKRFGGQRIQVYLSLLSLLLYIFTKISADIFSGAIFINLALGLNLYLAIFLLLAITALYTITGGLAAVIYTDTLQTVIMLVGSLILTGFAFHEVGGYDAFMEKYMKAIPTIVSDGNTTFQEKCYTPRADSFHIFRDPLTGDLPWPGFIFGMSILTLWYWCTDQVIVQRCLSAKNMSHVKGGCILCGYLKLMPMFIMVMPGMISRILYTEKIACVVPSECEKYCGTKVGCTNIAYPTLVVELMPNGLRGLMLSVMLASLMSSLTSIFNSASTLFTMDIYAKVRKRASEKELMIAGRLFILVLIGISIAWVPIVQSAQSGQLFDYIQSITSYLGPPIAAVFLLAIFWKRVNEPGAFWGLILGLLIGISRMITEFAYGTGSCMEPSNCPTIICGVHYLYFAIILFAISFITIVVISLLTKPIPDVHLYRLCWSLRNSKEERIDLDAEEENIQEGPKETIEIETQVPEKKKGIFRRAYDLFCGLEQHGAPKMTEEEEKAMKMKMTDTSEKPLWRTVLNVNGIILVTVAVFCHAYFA
Method: The effect of the compounds on the glucose transport activity of the SGLT1 transporter was detected by measuring the amount of [^14C]-labeled glucose entering cells highly expressing Human-SGLT1.
The cells stably expressing Human-SGLT1 used in the assay were constructed by Shanghai WuXi AppTec. The SGLT1 cells were plated on a Cytostar-T (PerkinElmer) 96-well cell culture plate and cultured at 5% CO2, 37° C. overnight.

Human-SGLT2 = target: T2, Human-SGLT2 (Homo sapiens, UniProt P31639); test: SGLT2 glucose transport assay ([14C]-methyl α-D-glucopyranoside uptake); assay type: cell-based; conditions: cells stably expressing Human-SGLT2, 37° C. for 2 hours
T2 sequence (P31639 1-672): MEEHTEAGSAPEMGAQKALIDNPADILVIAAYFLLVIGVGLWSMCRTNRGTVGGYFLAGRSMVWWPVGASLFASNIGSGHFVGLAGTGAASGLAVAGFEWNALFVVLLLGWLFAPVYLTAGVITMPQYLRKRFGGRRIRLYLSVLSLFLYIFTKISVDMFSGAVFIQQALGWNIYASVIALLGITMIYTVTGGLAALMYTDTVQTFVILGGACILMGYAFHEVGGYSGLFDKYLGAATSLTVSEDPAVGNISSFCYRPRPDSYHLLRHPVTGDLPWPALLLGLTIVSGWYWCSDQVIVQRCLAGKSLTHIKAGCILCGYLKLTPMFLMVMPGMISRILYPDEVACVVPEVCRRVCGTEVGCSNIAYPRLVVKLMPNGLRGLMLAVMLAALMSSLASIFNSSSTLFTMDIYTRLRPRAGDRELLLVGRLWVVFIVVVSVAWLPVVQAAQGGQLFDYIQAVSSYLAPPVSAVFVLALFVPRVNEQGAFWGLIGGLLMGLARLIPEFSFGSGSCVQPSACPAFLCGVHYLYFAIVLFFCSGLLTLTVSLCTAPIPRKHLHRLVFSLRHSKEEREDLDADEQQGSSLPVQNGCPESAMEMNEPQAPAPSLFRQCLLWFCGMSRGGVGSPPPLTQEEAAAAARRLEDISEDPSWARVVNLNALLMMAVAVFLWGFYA
Method: The effect of the compound on the glucose transport activity of the SGLT2 transporter was detected by measuring the amount of [^14C]-labeled glucose entering cells highly expressing Human-SGLT2.
The cells stably expressing Human-SGLT2 used in the assay were constructed by Shanghai WuXi AppTec. The SGLT2 cells were plated on a 96-well cell culture plate (Greiner) and cultured at 5% CO2, 37° C. overnight.

C57BL/6J male mice [1] = test: In vivo efficacy study in diabetic mouse model induced by STZ combined with high-sugar and high-fat diet; set-up: species or system C57BL/6J mice; conditions: for Glycosylated hemoglobin after 6 hours of fasting / Blood glucose after 6 hours of fasting: HFHS
Text: 7 week-old C57BL/6J male mice, purchased from Jiangsu GemPharmatech Co., Ltd.
1) After the animals adapted to the environment, all mice were divided into two groups according to body weight, fed according to the scheme in Table 8, and injected with vehicle and streptozotocin (STZ) for modeling;
2) According to the random blood glucose test results of the model group, mice with random blood glucose greater than 11 mmol/L were enrolled in the group to continue the administration assay;
3) The mice in the model group that meet the criteria for enrollment were divided into 3 groups, 5 in the normal group, and 10 in each model administration group. The mice were administered according to the administration schedule in Table 9;
4) After starting the administration, the level of change in animal weight was monitored every day, and the blood glucose and glycosylated hemoglobin of the mice in each group after 6 hours of fasting were detected after 4 weeks and 7 weeks of administration, respectively;
5) Data analysis: All values were expressed as average values. Statistical analysis was evaluated using Graphpad Prism 6 one-way analysis of variance and Tukey's multiple comparison test, and a p value of less than 0.05 was considered statistically significant.

SD rats = test: In vivo efficacy study of oral glucose tolerance in rats (OGTT); conditions: 5 mg/kg single gavage, then 50% glucose 2 g/kg, vehicle control 1063.4
Method: After the animals were fasted for 6 hours, they were administered WXD003 or vehicle according to Table 6, and then immediately administered 50% glucose solution (2 g/kg, 4 ml/kg).
The time for sugar administration was recorded as 0 point. The blood glucose of the animals was detected at 0 minute before sugar administration, and at 15, 30, 60, 90, 120 minutes after sugar administration, respectively. A curve of glucose tolerance was drawn based on the data of time versus blood glucose, and the area under curve (AUC) was calculated.
All values were expressed as average values. Statistical analysis was evaluated using Graphpad Prism 6 one-way analysis of variance and Tukey's multiple comparison test. A p value of less than 0.05 was considered statistically significant.

[2] = In vivo DMPK study in rats; conditions: male SD rats; for clearance / half-life / Vd: iv, 1 mg/kg intravenously; for clearance: read-out: Cl (clearance rate); for half-life: read-out: T1/2 (half-life) (converted); for Vd: read-out: VdSS (distribution volume)
Text: Purpose of the assay: Male SD rats were used as test animals to determine the blood concentration of the compound after a single administration and evaluate the pharmacokinetic behavior.
Procedure of the assay: 4 healthy adult male SD rats were selected, 2 rats in the intravenous injection group, and 2 rats in the oral group. The test compound was mixed with an appropriate amount of vehicle (10% NMP/10% solutol/80% water) for the intravenous injection group, vortexed, and sonicated to prepare a clear solution of 0.5 mg/mL. The clear solution was filtered by a microporous membrane for use. The vehicle for the oral group was 10% NMP/10% solutol/80% water. The test compound was mixed with the vehicle, and then the mixture was vortexed and sonicated to prepare a clear solution of 1 mg/mL. Rats were administered 1 mg/kg intravenously or 10 mg/kg orally, and then whole blood was collected for a certain period. Plasma was prepared. The drug concentration was analyzed by LC-MS/MS method, and the pharmacokinetic parameters were calculated by Phoenix WinNonlin software (Pharsight, USA).

C57BL/6J male mice [3] = test: In vivo efficacy study in obese mouse model induced by HFHS diet; set-up: species or system C57BL/6J mice; conditions: for Blood glucose after 6 hours of fasting / Blood glucose 1 hour after meal: after 3 weeks of administration, HFHS; for Blood glucose after 6 hours of fasting: HFHS + Vehicle 10.5; for Blood glucose 1 hour after meal: HFHS + Vehicle 11.5
Text: 5 week-old C57BL/6J male mice, purchased from Jiangsu GemPharmatech Co., Ltd.
1) After the animals adapted to the environment, they were fed a HFHS diet (Research Diet, HFHS, D12451) for 20 weeks, and then mice weighing more than 40 grams were selected for weight loss assay.
2) Animals whose body weight met the standard were adapted for vehicle administration, and then all mice were divided into 5 groups according to body weight for weight loss assay. The effect of the compound in reducing the body weight of animals was detected.
3) After starting the administration, the level of change in animal weight was monitored every day, and after 3 weeks of administration, the blood glucose levels of mice in each group after 6 hours of fasting and 1 hour after meal were detected, respectively;
4) Data analysis: All values were expressed as average values. Statistical analysis was evaluated using Graphpad Prism 6 one-way analysis of variance and Tukey's multiple comparison test, and a p value of less than 0.05 was considered statistically significant.

| IC50 (Human-SGLT1) [nM] | IC50 (Human-SGLT2) [nM] | clearance ([2]; rat, plasma) [mL/min/kg] | half-life ([2]; rat, plasma) [min] | Vd ([2]; rat, plasma) [L/kg] | Structure (SMILES) | further results |
| --- | --- | --- | --- | --- | --- | --- |
| 3.5 | 1.4 | – | – | – | CCc1ccc([C@@H]2O[C@H](SC)[C@@H](O)[C@H](O)[C@H]2O)cc1Cc1ccc(OC2CCN(C(=O)C[C@@H](Cc3cc(F)c(F)cc3F)NC)CC2)cc1 [WXD005] | – |
| 0.8 | 0.8 | – | – | – | CS[C@H]1O[C@@H](c2ccc(C)c(Cc3ccc(OC4CCN(C(=O)C[C@H](N)Cc5cc(F)c(F)cc5F)CC4)cc3)c2)[C@H](O)[C@@H](O)[C@@H]1O [WXD004] | – |
| 0.7 | 0.6 | 32.5 | 138 | 1.5 | CCc1ccc([C@@H]2O[C@H](SC)[C@@H](O)[C@H](O)[C@H]2O)cc1Cc1ccc(OC2CCN(C(=O)C[C@H](N)Cc3cc(F)c(F)cc3F)CC2)cc1 [WXD003] | Glycosylated hemoglobin after 6 hours of fasting (C57BL/6J male mice [1]; after 4 weeks of administration, 3 mg/kg orally once a day, HFHS + Vehicle 4.9): 4.5*** %; Blood glucose after 6 hours of fasting (C57BL/6J male mice [1]; after 4 weeks of administration, 3 mg/kg orally once a day, HFHS + Vehicle 13.7): 10.3*** mmol/L; weight gain of animals (C57BL/6J male mice [1]; after 4 weeks of administration, FIG. 3): can effectively control the weight gain of animals; Glycosylated hemoglobin after 6 hours of fasting (C57BL/6J male mice [1]; after 7 weeks of administration, 6 mg/kg (week 4 to 7) orally once a day, HFHS + Vehicle 5.2): 4.4**** %; Blood glucose after 6 hours of fasting (C57BL/6J male mice [1]; after 7 weeks of administration, 6 mg/kg (week 4 to 7) orally once a day, HFHS + Vehicle 15.3): 9.6**** mmol/L; weight gain of animals (C57BL/6J male mice [1]; after 7 weeks of administration, FIG. 6): can effectively control the weight gain of animals; OGTT blood glucose level AUC0-2 hours (SD rats): 624.2**** mmol/L × min; Oral DNAUC (AUCPO/Dose) ([2]; 10 mg/kg orally): 2 nM · h/mpk; bioavailability ([2]; rat, plasma, oral, 10 mg/kg orally vs 1 mg/kg intravenously, read-out: F % (oral bioavailability)): 0.2%; Cmax ([2]; rat, po, 10 mg/kg orally, plasma): 16.5 nM; Blood glucose after 6 hours of fasting (C57BL/6J male mice [3]; 0.3 mg/kg orally once a day): 9.7 mmol/L; Blood glucose 1 hour after meal (C57BL/6J male mice [3]; 0.3 mg/kg orally once a day): 10.5 mmol/L; Blood glucose after 6 hours of fasting (C57BL/6J male mice [3]; 1 mg/kg orally once a day): 9.6 mmol/L; Blood glucose 1 hour after meal (C57BL/6J male mice [3]; 1 mg/kg orally once a day): 10.2 mmol/L; Blood glucose after 6 hours of fasting (C57BL/6J male mice [3]; 3 mg/kg orally once a day): 9.7 mmol/L; Blood glucose 1 hour after meal (C57BL/6J male mice [3]; 3 mg/kg orally once a day): 9.6* mmol/L; animal weight (C57BL/6J male mice [3]; after 3 weeks of administration, 0.3, 1, 3 mg/kg, FIG. 7 and FIG. 8): can significantly reduce animal weight in a dose-dependent manner |
| 35 | 1.4 | – | – | – | CS[C@H]1O[C@@H](c2ccc(F)c(Cc3ccc(OC4CCN(C(=O)C[C@H](N)Cc5cc(F)c(F)cc5F)CC4)cc3)c2)[C@H](O)[C@@H](O)[C@@H]1O [WXD006] | – |
| 69 | 5.8 | – | – | – | CS[C@H]1O[C@@H](c2cccc(Cc3ccc(OC4CCN(C(=O)C[C@H](N)Cc5cc(F)c(F)cc5F)CC4)cc3)c2)[C@H](O)[C@@H](O)[C@@H]1O [WXD007] | – |
| 1.1 | 1.1 | 37.6 | 114 | 1.4 | CS[C@H]1O[C@@H](c2ccc(C)c(Cc3ccc(CCCC(=O)NC(C)(C)C(=O)NCCN(C)C)cc3)c2)[C@H](O)[C@@H](O)[C@@H]1O [LX2761, reference compound] | – |
